Measurements as given in patent US6767741B1, “Metal binding compounds and their use in cell culture medium compositions” (Invitrogen Corporation, priority 1999, dated 2004).

Tests used:
293 cells = assay: Growth of 293 cells in transferrin-free 293 SFM with metal binding compounds; assay type: cell-based; conditions: third passage
Protocol: Semi-confluent adherent cultures of 293 Cells (ATCC, CRL 1573) are readily adapted to suspension culture. The cells are first detached with a solution of Trypsin-EDTA (0.05% Trypsin, 0.53 mM Na4EDTA), and then resuspended in conventional medium supplemented with 10% FBS to inhibit the trypsin. The resuspended cells are centrifuged at 200×g for five minutes. The cell pellet is resuspended in 293 SFM (available from Life Technologies, Rockville, Md.) the formulation of which is described in WO 98/08934 which is specifically incorporated herein by reference. Alternatively, the cells may be detached with Versene (Na4EDTA, 0.53 mM) and resuspended in 293 SFM.
The initial seeding density of the 293 cells after conversion to suspension culture is 1×10^6 cells/mL. The cells are shaken on a rotary shaker at 150 rpm in a 37° C. incubator equilibrated with 8% CO2-92% air. When the cells reach a density of 1.5×10^6 cells/mL they are diluted with 293 SFM to a density of 3.0×10^5 cells/mL. Because 293 cells have a tendency to aggregate, the cells may be vortexed vigorously for approximately 45 seconds to obtain a predominantly single cell suspension at the time of passaging and counting. After several passages in suspension culture, the maximum achievable density may be determined.
The ability of metal binding compounds to support cellular growth was evaluated using 293 cells maintained in 293 SFM (Life Technologies, Rockville, Md.) without transferrin or metal binding compound. Stock cultures containing 5 μg/mL human holo-transferrin were prepared in 293 SFM. For metal binding compound evaluation, 293 cells were established in 125 mL shaker flasks at an initial viable seeding density of 2×10^5 cells/mL in a final volume of 20 mL. All cultures were maintained at 37° C. in humidified air containing 8% CO2. To eliminate transferrin carry-over effects, cells were subcultured at 4 day intervals for a total of three passages. At each subculturing, cells were seeded at a density of 2×10^5 cells/mL. Positive control cultures contained 5 μg/mL human holo-transferrin while negative control cultures were established in the absence of either transferrin or metal binding compound. Metal binding compound stocks were prepared at 0.1M-0.2M in ddH2O and solubilized when necessary using 5N NaOH or HCl. Iron complexes were established using 0.2M metal binding compound and iron stocks mixed 1:1 (v/v) and incubated for 5-10 minutes at 22° C. All solutions containing metal binding compounds were filter sterilized using a 0.22 μm Millex-GV filter prior to addition to transferrin and serum-free media.
In most cases, metal binding compounds were evaluated either alone or in combination with ferric chloride or ferrous sulfate at 25 μM, 50 μM and 100 μM. When used in combination, the metal binding compounds were used in equimolar concentration with iron ions. Values in the table represent the mean percentage of control growth for duplicate cultures determined at the third passage.
(§1) When added to the medium formulation un-complexed, the metal binding compound is listed alone, when added as a complex with a transition metal, the source of the transition metal is listed with the metal binding compound.

Sp2/0 cells = assay: Growth of Sp2/0 cells in transferrin-free CD Hybridoma medium with metal binding compounds; assay type: cell-based; conditions: third passage
Protocol: The ability of iron metal binding compounds to support cellular growth in the absence of transferrin was evaluated using Sp2/0 cells maintained in CD Hybridoma medium (Life Technologies, Rockville, Md.). Stock cultures containing 5 μg/mL human holo-transferrin were prepared in CD Hybridoma medium. For metal binding compound evaluation, Sp2/0 cells were established at an initial viable cell density of 0.5×10^5 cells/mL in stationary culture using 75 cm^2 tissue culture flasks in a final volume of 20 mL. All cultures were maintained at 37° C. in humidified air containing 8% CO2. To eliminate transferrin carry-over effects, cells were subcultured at the same seeding density at 4 day intervals for a total of three passages. Positive control cultures contained 5 μg/mL human holotransferrin while negative control cultures were established in the absence of either transferrin or metal binding compound. Metal binding compound stocks were prepared at 0.1M-0.2M in ddH2O and solubilized when necessary using 5N NaOH or HCl. Iron complexes were established using 0.2M metal binding compound and iron stocks mixed 1:1 (v/v) and incubated for 5-10 minutes at 22° C. All solutions containing metal binding compounds were filter sterilized using a 0.22 μm Millex-GV filter prior to addition to transferrin and serum-free media.
In most cases, metal binding compounds were evaluated either alone or in combination with ferric chloride or ferrous sulfate at 25 μM, 50 μM and 100 μM. Values in the table represent the mean percentage of control growth for duplicate cultures determined at the third passage.
as §1

[1] = 25 μM, control = 5 μg/mL human holo-transferrin, duplicate cultures
[2] = 50 μM, control = 5 μg/mL human holo-transferrin, duplicate cultures
[3] = 100 μM, control = 5 μg/mL human holo-transferrin, duplicate cultures

SMILES	mean percentage of control growth (293 cells; [1]) [%]	mean percentage of control growth (293 cells; [2]) [%]	mean percentage of control growth (293 cells; [3]) [%]	mean percentage of control growth (Sp2/0 cells; [1]) [%]	mean percentage of control growth (Sp2/0 cells; [2]) [%]	mean percentage of control growth (Sp2/0 cells; [3]) [%]	further results
O=C(O)CN(CCN(CC(=O)O)CC(=O)O)CCN(CC(=O)O)CC(=O)O.[Cl][Fe]([Cl])[Cl] [Diethylenetriamine Penta-Acetic Acid · Ferric Chloride]	79	96	102	–	–	–	–
O=C(O)CN(CC(=O)O)CC(=O)O [Nitriloacetic Acid]	–	–	–	0	0	0	–
CC(=O)NO.[Cl][Fe]([Cl])[Cl] [Acetohydroxamic Acid · Ferric Chloride]	83	22	0	–	–	–	mean percentage of control growth (Sp2/0 cells; 5 μM, control = holo-transferrin): 40%; mean percentage of control growth (Sp2/0 cells; 10 μM, control = holo-transferrin): 48%; mean percentage of control growth (Sp2/0 cells; 20 μM, control = holo-transferrin): 47%
C1COCCN1.[Cl][Fe]([Cl])[Cl] [Morpholine · Ferric Chloride]	–	–	–	54	64	81	–
O=C(O)c1cccnc1O.[Cl][Fe]([Cl])[Cl] [2-Hydroxynicotinic Acid · Ferric Chloride]	–	–	–	64	82	85	mean percentage of control growth (293 cells; 100 μM (row note: 293 tested at 100, 150, 200 μM; first column)): 0%; mean percentage of control growth (293 cells; 150 μM (row note: 293 tested at 100, 150, 200 μM; second column)): 0%; mean percentage of control growth (293 cells; 200 μM (row note: 293 tested at 100, 150, 200 μM; third column)): 99%
Cc1occc(=O)c1O [3-Hydroxy-2-Methyl-4-Pyrone (Maltol), 3-Hydroxy-2-Methyl-4-Pyrone]	0	28	81	0	0	0	–
O=C(O)c1ccccn1.O=S(=O)([O-])[O-].[Fe+2] [2-Pyridinecarboxylic Acid · Ferrous Sulfate]	67	48	0	–	–	–	–
CC(=O)N[C@@H](CS)C(=O)O.[Cl][Fe]([Cl])[Cl] [N-Acetyl-Cysteine · Ferric Chloride]	88	82	52	–	–	–	–
NC(CCC(=O)O)C(=O)O.[Cl][Fe]([Cl])[Cl] (stereo not drawn) [Glutamic Acid · Ferric Chloride]	102	68	83	–	–	–	–
OC1C(O)C(O)C(O)C(O)C1O.[Cl][Fe]([Cl])[Cl] (stereo not drawn) [Myo-Inositol · Ferric Chloride]	79	87	85	–	–	–	–
[Cl][Fe]([Cl])[Cl].c1ccc(-c2ccccn2)nc1 [2,2-Dipyridyl · Ferric Chloride]	51	96	0	–	–	–	–
NCC(=O)O.[Cl][Fe]([Cl])[Cl] [Glycine · Ferric Chloride]	81	71	72	34	61	56	–
O=S(=O)([O-])[O-].OC[C@@H](O)[C@@H](O)[C@H](O)[C@@H](O)CO.[Fe+2] [Sorbitol · Ferrous Sulfate]	58	69	83	–	–	–	–
O=S(=O)([O-])[O-].[Fe+2].[O-][n+]1cccc(O)c1 [3-Hydroxypyridine-N-Oxide · Ferrous Sulfate]	104	58	0	–	–	–	–
O=C(O)CN(CC(=O)O)CC(=O)O.O=S(=O)([O-])[O-].[Fe+2] [Nitriloacetic Acid · Ferrous Sulfate]	75	95	0	–	–	–	–
Cc1occc(=O)c1O.[Cl][Fe]([Cl])[Cl] [3-Hydroxy-2-Methyl-4-Pyrone · Ferric Chloride]	–	–	–	60	71	75	–
O=[N+]([O-])c1ncccc1O.[Cl][Fe]([Cl])[Cl] [3-Hydroxy-2-Nitropyridine · Ferric Chloride]	–	–	–	52	62	72	–
NC(Cn1ccc(=O)c(O)c1)C(=O)O.[Cl][Fe]([Cl])[Cl] (stereo not drawn) [Mimosine · Ferric Chloride]	64	55	80	–	–	–	–
[O-][n+]1cccc(O)c1 [3-Hydroxypyridine-N-Oxide]	4	4	4	–	–	–	–
NC(=O)CC(N)C(=O)O.[Cl][Fe]([Cl])[Cl] (stereo not drawn) [Asparagine · Ferric Chloride]	–	–	–	36	51	54	–
